Where a name gives a salt, the structure may show the parent alone.
Key:
[1] = tested on: reserpine-induced hypothermia; assay: Antagonism of the reserpine-induced hypothermia; type: in vivo, mice; conditions: given 4 hours after reserpine 2.5 mg/kg i.p.; rectal temperature 90 min after compound
Method: Antagonism of the Reserpine-Induced Hypothermia
The compounds of a general formula (I) as well as the reference compounds are administered 4 hours after reserpine (2.5 mg/kg i.p.). Rectal temperature is measured 90 minutes after the administration of the compounds to be tested.

[2] = tested on: apomorphine-induced hypothermia; assay: Antagonism of apomorphine-induced hypothermia; type: in vivo; conditions: male CD1 mice; i.p.; apomorphine 16 mg/kg s.c.; rectal temperature 30 min after apomorphine
Method: Antagonism of Apomorphine-Induced Hypothermia (A. J. Puech et al., Psychopharmacology (1981) 75(1):84-91)
Male CD1 mice (Charles River) weighing 22-25 g are used in the test. The mice are housed individually in transparent plastic cages. The compounds of a general formula (I) as well as the reference compounds are suspended in 1% aqueous carboxymethylcellulose and administered intraperitoneally (10 ml/kg; 6 mice per dose). Control animals received the vehicle only.
Rectal temperature is measured using a probe carrying a thermoelectric couple (connected to a galvanometer) inserted to a constant depth.
The compounds to be tested as well as the vehicle are administered 30 minutes after basal rectal temperature is measured, and 30 minutes later apomorphine (16 mg/kg) is administered subcutaneously. Rectal temperature is measured again 30 minutes after the administration of apomorphine.
The results are expressed as average rectal temperature of each group, by evaluating the significant differences in temperature between treated and control mice by Student's t test, and are used for calculating the M.A.D., i.e., the minimal active dose.

[3] = tested on: immobility of mice; assay: Tail suspension; type: in vivo; conditions: 30 mg/kg PO, reference
Method: Compounds of a general formula (I) (starting at an initial dose of 30 mg/kg PO, 1 hr pretreatment) were administered to mice (n=5). A reduction of immobility by 50% or more relative to a vehicle-treated control group indicates possible antidepressant activity. Fluoxetine hydrochloride served as a standard reference compound. […] There was a 35% mobility reduction at 100 mg/kg PO, 54% mobility reduction at 10 mg/kg PO and 46% mobility reduction at 1 mg/kg PO.

| SMILES | M.A.D. (minimal active dose), antagonism of reserpine-induced hypothermia [1] | M.A.D. (minimal active dose), antagonism of apomorphine-induced hypothermia [2] [mg/kg i.p.] | reduction of immobility [3] [%] |
| --- | --- | --- | --- |
| CCOC(=O)COc1cccc([C@@H]2CCC[C@@H](NC[C@H](O)c3cccc(Cl)c3)C2)c1 [Compound A, 3-[(1R,3R)-3-[(2R)-2-(3-chlorophenyl)-2-hydroxyethylamino]cyclohexyl]-phenoxy acetic acid ethyl ester, maleate salt] | closer to clenbuterol (0.03 mg/kg i.p.) than salbutamol (3.0 mg/kg i.p.) |  |  |
| CC(C)(C)NCC(O)c1cc(Cl)c(N)c(Cl)c1 (stereo not drawn) [clenbuterol] | 0.03 mg/kg i.p. | 0.03 |  |
| CNCCC(Oc1ccc(C(F)(F)F)cc1)c1ccccc1 (stereo not drawn) [fluoxetine, Fluoxetine hydrochloride] |  |  | 87 |
| CC(C)(C)NCC(O)c1ccc(O)c(CO)c1 (stereo not drawn) [salbutamol] | 3.0 mg/kg i.p. | 1.0 |  |
